US4666842A, “Novel aldehyde oxidase and process for producing same” (Kyowa Hakko Kogyo Co., Inc., priority 1982, dated 1987)
“Also recorded” adds a separate entry of the source. Where two headings read alike, the source gives them in different places.

Key:
[1] = system: aldehyde oxidase (the present enzyme); test: Substrate specificity of the present aldehyde oxidase; format: biochemical, Pseudomonas sp No. 6233; conditions: for Relative activity (substrate specificity): purified enzyme of Example 1, formaldehyde = 100%
Experimental: (§1) The amount of enzyme for decomposing 1 μmol of acetaldehyde in the presence of oxygen at 37° C. in one minute is designated as one unit. Specific activity is expressed by unit per mg of protein. The amount of enzyme protein is measured according to the method of O. H. Lowry, N. J. Rosebrough, A. L. Farr and R. J. Randall, J. Biol. Chem., 193 265(1951) using a copper-Folin reagent.
(§2) The enzyme activity can be measured by allowing the hydrogen peroxide formed from acetaldehyde by the action of the enzyme to react with 4-aminoantipyrine and phenol in the presence of a peroxidase and by quantitatively determining the amount of quinoneimine formed. The reaction is illustrated by the following equations (1) and (2): [drawing 1]
(§3) The above reagents (1)-(6) are put into a test tube, thoroughly shaken, and left standing at 37° C. for 5 minutes. Then, the enzyme solution (7) is added to the test tube to make up a total volume of 3 ml, and the test tube is shaken at 37° C. for 10 minutes to complete the reaction. As a control, the procedure is repeated using water in place of the substrate. The absorbancies of the reaction solution and control at 500 nm are measured, and the difference between the absorbancies is obtained as ΔO.D.
(§4) One unit of aldehyde oxidase is the amount of enzyme for decomposing 1 μmole of acetaldehyde at 37° C. in one minute. The absorbancy coefficient of 1 mM quinoneimine is reported in Clin. Chem., 20, 470(1974) to be 5.33. Therefore, if the absorbancy (ΔO.D.) of 3 ml of the reaction solution at 500 nm as obtained in the procedure (C) is designation as a, titer (A) per ml of the enzyme solution can be given as follows: [formula]
(§5) II. Physical and chemical properties of the aldehyde oxidase of the present invention are described below (hereinafter, the aldehyde oxidase will be sometimes referred to merely as "the present enzyme"). A purified enzyme prepared in Example 1 is used as the aldehyde oxidase.
For example, formaldehyde, acetaldehyde and glyceraldehyde are oxidized to formic acid, acetic acid and glyceric acid respectively. The present enzyme acts upon a wide range of aldehydes, for example, saturated aliphatic aldehydes such as formaldehyde, acetaldehyde, propionaldehyde, n-valeraldehyde, n-hexylaldehyde, heptylaldehyde, etc.; unsaturated aliphatic aldehydes such as crotonaldehyde, citral, etc.; aromatic aldehydes such as benzaldehyde, etc.; D- or L-glyceraldehyde, etc.
In the following Table 1, the relative activity of the present enzyme upon various substrates is set forth.

[2] = system: aldehyde oxidase (the present enzyme); format: biochemical, Pseudomonas sp No. 6233
Experimental: as §1, §2, §3, §4, §5
The present enzyme is inhibited by mercuric chloride and p-chloromercuriphenylsulfonic acid, and thus it appears that an SH group takes part in the reaction.

[3] = target: T1, aldehyde oxidase of animal origin (Oryctolagus cuniculus, UniProt P80456); conditions: known enzyme, literature; cited from earlier work
T1 sequence (P80456 1-1334): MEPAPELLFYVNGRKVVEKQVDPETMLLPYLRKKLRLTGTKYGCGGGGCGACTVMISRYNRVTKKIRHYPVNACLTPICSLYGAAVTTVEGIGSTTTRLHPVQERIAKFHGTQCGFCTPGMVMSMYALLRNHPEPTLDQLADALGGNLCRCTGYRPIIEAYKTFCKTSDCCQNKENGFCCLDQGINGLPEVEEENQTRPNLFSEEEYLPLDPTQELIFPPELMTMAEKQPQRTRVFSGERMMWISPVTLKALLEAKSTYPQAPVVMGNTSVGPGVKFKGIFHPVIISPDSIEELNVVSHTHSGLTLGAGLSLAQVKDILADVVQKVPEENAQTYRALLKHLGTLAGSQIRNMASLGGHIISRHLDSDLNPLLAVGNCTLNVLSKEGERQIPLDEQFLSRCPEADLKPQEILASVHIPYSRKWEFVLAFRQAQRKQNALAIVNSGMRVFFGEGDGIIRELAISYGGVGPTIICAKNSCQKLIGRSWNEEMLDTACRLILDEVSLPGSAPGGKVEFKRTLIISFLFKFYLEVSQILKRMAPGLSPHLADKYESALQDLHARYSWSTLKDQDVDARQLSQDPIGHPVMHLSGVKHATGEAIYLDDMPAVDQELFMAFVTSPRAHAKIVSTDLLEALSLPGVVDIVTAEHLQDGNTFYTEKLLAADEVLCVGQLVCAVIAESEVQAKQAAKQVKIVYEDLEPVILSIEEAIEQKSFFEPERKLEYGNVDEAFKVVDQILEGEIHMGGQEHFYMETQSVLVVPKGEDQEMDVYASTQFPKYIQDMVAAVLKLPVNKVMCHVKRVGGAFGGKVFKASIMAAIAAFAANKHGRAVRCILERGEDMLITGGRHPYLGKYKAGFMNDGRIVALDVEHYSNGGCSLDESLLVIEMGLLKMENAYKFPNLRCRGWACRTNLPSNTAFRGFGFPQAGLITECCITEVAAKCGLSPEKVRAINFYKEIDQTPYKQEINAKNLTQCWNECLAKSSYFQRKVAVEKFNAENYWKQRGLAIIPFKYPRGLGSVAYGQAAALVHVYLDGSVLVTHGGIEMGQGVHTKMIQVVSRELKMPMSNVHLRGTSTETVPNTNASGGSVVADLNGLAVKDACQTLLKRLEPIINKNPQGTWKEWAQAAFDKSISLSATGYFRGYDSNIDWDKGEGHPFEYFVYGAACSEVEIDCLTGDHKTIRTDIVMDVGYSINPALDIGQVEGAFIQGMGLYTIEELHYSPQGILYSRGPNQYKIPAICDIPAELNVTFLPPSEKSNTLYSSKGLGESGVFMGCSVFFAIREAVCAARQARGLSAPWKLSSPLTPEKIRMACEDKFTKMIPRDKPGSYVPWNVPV

[4] = target: T1, aldehyde oxidase of animal origin; format: biochemical
Text: *aldehyde oxidase of animal origin for comparison purposes.

[5] = concentration 0.1 mM, none = 100

CC=O [Acetaldehyde]
action of the present enzyme upon the substrate [1]: acts upon | Relative activity (substrate specificity) [1]: 266%

[Ba+2].[Cl-].[Cl-] [BaCl2]
Relative activity (%) [2, 5]: 87%

O=Cc1ccccc1 [Benzaldehyde]
action of the present enzyme upon the substrate [1]: acts upon | Relative activity (substrate specificity) [1]: 93%

CC(=O)O [Ca(CH3 COO)2]
Relative activity (%) ([2]; 1000 µM): 109%

CC(C)=CCCC(C)=CC=O [Citral]
action of the present enzyme upon the substrate [1]: acts upon | Relative activity (substrate specificity) [1]: 291%

[Cl-].[Cl-].[Co+2] [CoCl2]
Relative activity (%) ([2]; concentration 1 mM, none = 100): 104%

C/C=C/C=O [Crotonaldehyde]
action of the present enzyme upon the substrate [1]: acts upon | Relative activity (substrate specificity) [1]: 260%

O=S(=O)([O-])[O-].[Cu+2] [CuSO4]
Relative activity (%) [2, 5]: 20%

O=C[C@H](O)CO [D-Glyceraldehyde]
action of the present enzyme upon the substrate [1]: acts upon | Relative activity (substrate specificity) [1]: 270%

CCO [Ethanol]
action of the present enzyme upon the substrate [1]: does not act upon | Relative activity (substrate specificity) [1]: 0%

O=S(=O)([O-])[O-].[Fe+2] [FeSO4]
Relative activity (%) [2, 5]: 100%

C=O [Formaldehyde]
action of the present enzyme upon the substrate [1]: acts upon | Relative activity (substrate specificity) [1]: 100%

CCCCCCC=O [Heptylaldehyde]
action of the present enzyme upon the substrate [1]: acts upon | Relative activity (substrate specificity) [1]: 387%

[Cl][Hg][Cl] [HgCl2, mercuric chloride]
Relative activity (%) [2, 5]: 0% | inhibition of the present enzyme [2]: inhibited

NO [Hydroxylamine]
Relative activity (%) ([2]; concentration 1 mM, none = 100): 110%

O=c1[nH]cnc2nc[nH]c12 [Hypoxanthine]
action of the present enzyme upon the substrate [1]: does not have any catalytic action | Relative activity (substrate specificity) [1]: 0% | action of aldehyde oxidase of animal origin upon the substrate [3]: acts upon

O=C[C@@H](O)CO [L-Glyceraldehyde]
action of the present enzyme upon the substrate [1]: acts upon | Relative activity (substrate specificity) [1]: 23%

CO [Methanol]
action of the present enzyme upon the substrate [1]: does not act upon | Relative activity (substrate specificity) [1]: 0%

O=S(=O)([O-])[O-].[Mg+2] [MgSO4]
Relative activity (%) ([2]; concentration 1 mM, none = 100): 97%

[Cl][Mn][Cl] [MnCl2]
Relative activity (%) ([2]; concentration 1 mM, none = 100): 106%

C[n+]1cccc(C(N)=O)c1 [N'--Methylnicotinamide]
action of the present enzyme upon the substrate [1]: does not act upon | Relative activity (substrate specificity) [1]: 0%

c1cnc2c(c1)ccc1cccnc12 [O--Phenanthroline]
Relative activity (%) ([2]; concentration 1 mM, none = 100): 103%

CCC=O [Propionaldehyde]
action of the present enzyme upon the substrate [1]: acts upon | Relative activity (substrate specificity) [1]: 285%

c1ncc2[nH]cnc2n1 [Purine]
action of the present enzyme upon the substrate [1]: does not have any catalytic action | Relative activity (substrate specificity) [1]: 0% | action of aldehyde oxidase of animal origin upon the substrate [3]: acts upon

C=C[C@H]1C[N@@]2CC[C@H]1C[C@H]2[C@H](O)c1ccnc2ccc(OC)cc12 [Quinine]
action of the present enzyme upon the substrate [1]: does not have any catalytic action; also recorded: does not act upon | Relative activity (substrate specificity) [1]: 0%

c1ccc2ncccc2c1 [Quinoline]
action of the present enzyme upon the substrate [1]: does not act upon | Relative activity (substrate specificity) [1]: 0%

ON=Cc1ccccc1O [Salicylaldoxime]
Relative activity (%) ([2]; 1000 µM): 91%

[Cl-].[Cl-].[Sr+2] [SrCl2]
Relative activity (%) ([2]; concentration 1 mM, none = 100): 94%

[Cl-].[Cl-].[Zn+2] [ZnCl2]
Relative activity (%) ([2]; concentration 1 mM, none = 100): 103%

CCCCCC=O [n-Hexylaldehyde]
action of the present enzyme upon the substrate [1]: acts upon | Relative activity (substrate specificity) [1]: 390%

CCCCC=O [n-Valeraldehyde]
action of the present enzyme upon the substrate [1]: acts upon | Relative activity (substrate specificity) [1]: 367%

O=S(=O)(O)c1cc[c]([Hg][Cl])cc1 [p-Chloromercuriphenylsulfonic acid, p-chloromercuriphenylsulfonic acid]
Relative activity (%) [2, 5]: 0% | inhibition of the present enzyme [2]: inhibited

c1ccc(-c2ccccn2)nc1 [α, α'-Dipyridyl]
Relative activity (%) ([2]; concentration 1 mM, none = 100): 85%

Antimycin A
Relative activity (%) ([2]; concentration 2 × 10^-3 mM, none = 100, 2 µM): 94% | inhibition of the present enzyme [2]: not strongly inhibited | Relative activity (%), aldehyde oxidase of animal origin ([4]; concentration 2 × 10^-3 mM, value in brackets, for comparison, 2 µM): 38% | inhibition of the known aldehyde oxidase of animal origin ([4]; known aldehyde oxidase): strongly inhibited
